Where a SMILES comes first, the peptide text is derived from it. [ ]: non-standard residue; d: D form. The star is where a group is joined. pY = N[C@@H](Cc1ccc(OP(=O)(O)O)cc1)C(=O)O; Dopa = N[C@@H](Cc1ccc(O)c(O)c1)C(=O)O; Caffeoyl = O=C(/C=C/c1ccc(O)c(O)c1)*; X1 = O=C(Cc1cc(=O)oc2cc(O)ccc12)*

Experiment [1] addresses Tyrosine-protein kinase Lck (Homo sapiens, UniProt P06239). Put plainly: Affinity for GST-Lck-SH2 domain in ELISA.
For experiment [2], the target named is Proto-oncogene tyrosine-protein kinase Src (Homo sapiens, UniProt P12931). As to the kind of experiment: Affinity for GST- Src-SH2 domain in ELISA. In general terms: An ELISA detects its analyte on a solid surface through an enzyme-linked reagent.
Proto-oncogene tyrosine-protein kinase Src, sequence (P12931 2-536 limits assumed): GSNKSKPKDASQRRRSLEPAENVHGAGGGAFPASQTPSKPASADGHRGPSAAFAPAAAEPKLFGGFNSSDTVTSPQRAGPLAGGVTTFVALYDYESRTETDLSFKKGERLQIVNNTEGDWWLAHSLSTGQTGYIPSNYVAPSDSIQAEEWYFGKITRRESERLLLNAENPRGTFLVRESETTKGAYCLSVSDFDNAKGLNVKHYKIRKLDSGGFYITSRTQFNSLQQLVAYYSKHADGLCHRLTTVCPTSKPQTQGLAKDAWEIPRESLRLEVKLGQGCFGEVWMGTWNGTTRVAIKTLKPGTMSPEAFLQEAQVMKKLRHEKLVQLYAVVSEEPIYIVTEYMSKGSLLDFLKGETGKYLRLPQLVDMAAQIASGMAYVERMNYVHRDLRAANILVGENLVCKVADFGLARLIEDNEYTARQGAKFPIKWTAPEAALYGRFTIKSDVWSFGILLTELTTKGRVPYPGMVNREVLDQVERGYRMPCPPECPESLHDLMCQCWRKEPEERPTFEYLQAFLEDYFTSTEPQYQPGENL
In experiment [3] the target is Tyrosine-protein kinase Fyn (Homo sapiens, UniProt P06241). Put plainly: Affinity for GST-Fyn-SH2 domain in ELISA.
Tyrosine-protein kinase Fyn, sequence (P06241 whole entry, the tested form may be a part): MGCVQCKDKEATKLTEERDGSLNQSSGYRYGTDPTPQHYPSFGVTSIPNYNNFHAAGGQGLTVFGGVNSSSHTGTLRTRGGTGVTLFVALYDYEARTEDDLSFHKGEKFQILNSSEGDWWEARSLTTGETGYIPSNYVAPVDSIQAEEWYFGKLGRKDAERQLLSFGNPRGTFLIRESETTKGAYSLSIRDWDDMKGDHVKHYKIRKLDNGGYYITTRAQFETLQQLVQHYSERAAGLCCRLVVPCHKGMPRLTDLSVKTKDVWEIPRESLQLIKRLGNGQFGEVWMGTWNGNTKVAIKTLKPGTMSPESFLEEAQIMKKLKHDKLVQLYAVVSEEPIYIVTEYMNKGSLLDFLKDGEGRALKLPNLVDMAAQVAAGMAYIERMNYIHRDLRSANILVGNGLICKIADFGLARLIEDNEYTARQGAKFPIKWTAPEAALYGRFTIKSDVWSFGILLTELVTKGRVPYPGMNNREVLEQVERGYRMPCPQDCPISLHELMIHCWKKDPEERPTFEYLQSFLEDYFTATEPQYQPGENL

Tyrosine-protein kinase Lck, sequence (P06239 whole entry, the tested form may be a part): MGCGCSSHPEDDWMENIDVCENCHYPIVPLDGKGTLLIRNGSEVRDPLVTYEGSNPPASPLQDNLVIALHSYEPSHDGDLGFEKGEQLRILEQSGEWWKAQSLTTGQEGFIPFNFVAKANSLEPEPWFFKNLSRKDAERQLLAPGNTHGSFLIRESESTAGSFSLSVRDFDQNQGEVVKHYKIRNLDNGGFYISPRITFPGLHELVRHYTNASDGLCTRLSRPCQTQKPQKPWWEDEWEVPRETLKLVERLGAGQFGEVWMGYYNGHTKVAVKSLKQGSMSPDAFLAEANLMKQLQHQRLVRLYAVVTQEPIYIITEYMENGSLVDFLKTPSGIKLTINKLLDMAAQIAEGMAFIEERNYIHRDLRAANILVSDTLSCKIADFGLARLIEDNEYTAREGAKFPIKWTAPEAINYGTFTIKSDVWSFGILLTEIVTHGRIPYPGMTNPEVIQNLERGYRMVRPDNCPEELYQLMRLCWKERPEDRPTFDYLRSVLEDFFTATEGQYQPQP

For `CC(=O)N[C@@H](Cc1ccc(O)c(O)c1)C(=O)N[C@@H](CCC(=O)O)C(=O)N[C@@H](CCC(=O)O)C(=O)N[C@@H](CCC(=O)O)C(=O)O` (Ac-[Dopa]EEE-OH), the IC50 in experiment [1] was 120 µM; in experiment [2], 160 µM; in experiment [3] it was over 200 µM.
As for `CC[C@H](C)[C@H](NC(=O)[C@H](CCC(=O)O)NC(=O)[C@H](CCC(=O)O)NC(=O)[C@H](Cc1ccc(OP(=O)(O)O)cc1)NC(C)=O)C(=O)N[C@@H](CCC(=O)O)C(=O)O` (Ac-[pY]EEIE-OH), the IC50 came to 1.3 µM in experiment [1] and 1.1 µM in experiment [3].
As for `CC[C@H](C)[C@H](NC(=O)[C@H](CCC(=O)O)NC(=O)[C@H](CCC(=O)O)NC(=O)[C@H](Cc1ccc(O)cc1)NC(=O)/C=C/c1ccc(O)c(O)c1)C(=O)N[C@@H](CCC(=O)O)C(=O)O` (Caffeoyl-YEEIE-OH), the results for the IC50 in experiment [1], in experiment [2] and in experiment [3] were 27 µM, 54 µM and 45 µM, respectively.
With `CC[C@H](C)[C@H](NC(=O)[C@H](CCC(=O)O)NC(=O)[C@H](CCC(=O)O)NC(=O)[C@H](Cc1ccc(O)c(O)c1)NC(=O)/C=C/c1ccc(O)c(O)c1)C(=O)N[C@@H](CCC(=O)O)C(=O)O` (Caffeoyl-[Dopa]EEIE-OH), the IC50 in experiment [1] is 18 µM; in experiment [2], 55 µM; in experiment [3] it was 33 µM.
On to `CC[C@H](C)[C@H](NC(=O)[C@H](CCC(=O)O)NC(=O)[C@H](CCC(=O)O)NC(=O)[C@H](Cc1ccc(OP(=O)(O)O)cc1)NC(=O)/C=C/c1ccc(O)c(O)c1)C(=O)N[C@@H](CCC(=O)O)C(=O)O` (Caffeoyl-[pY]EEIE-OH), for which the IC50 was 0.042 µM in experiment [1], 0.064 µM in experiment [2] and 0.084 µM in experiment [3].
Regarding `CC[C@H](C)[C@H](NC(=O)[C@H](CCC(=O)O)NC(=O)[C@H](CCC(=O)O)NC(=O)[C@H](Cc1ccc(O)c(O)c1)NC(=O)Cc1cc(=O)oc2cc(O)ccc12)C(=O)N[C@@H](CCC(=O)O)C(=O)O` (X1-[Dopa]EEIE-OH), the IC50 in experiment [1] amounted to 58 µM; in experiment [2], 65 µM; in experiment [3], 77 µM.
In the case of `CC[C@H](C)[C@H](NC(=O)[C@H](CCC(=O)O)NC(=O)[C@H](CCC(=O)O)NC(=O)[C@H](Cc1ccc(OP(=O)(O)O)cc1)NC(=O)Cc1cc(=O)oc2cc(O)ccc12)C(=O)N[C@@H](CCC(=O)O)C(=O)O` (X1-[pY]EEIE-OH), the IC50 in experiment [1] is 0.081 µM; in experiment [2], 0.09 µM; in experiment [3], 0.1 µM.
For the molecule Ac-YAEIE-OH, the IC50 came out at 3.8 µM in experiment [1], 7 µM in experiment [2] and 11 µM in experiment [3].
Turning to Ac-YEEIE-OH, the 50% inhibitory concentration (IC50) in experiment [1], in experiment [2] and in experiment [3] was over 200 µM throughout.

The term IC50 denotes the concentration at which inhibition is half-maximal.

These data come from ChEMBL document CHEMBL1135345, “Design and characterization of non-phosphopeptide inhibitors for Src family SH2 domains” (Bioorg Med Chem Lett, 2002).
